From ChEMBL document CHEMBL3232974, “In vivo optimization of 2,3-diaminopyrazine Rho Kinase inhibitors for the treatment of glaucoma” (Bioorg Med Chem Lett, 2014) come the findings set out here.

The target in data set [1] is Rho-associated protein kinase 1 (Homo sapiens, UniProt Q13464). Put plainly: Inhibition of truncated ROCK-1 (unknown origin).
Data set [2] concerns Cynomolgus monkey. Put plainly: Toxicity in cynomolgus monkey compound administered as topical ocular dose after 6 hrs. The settings on record: in vivo, topical_or_ocular. The format is organism-based, Macaca fascicularis, Eye.
The species entered for data set [3] is Cavia porcellus. Put plainly: Antiglaucoma activity in guinea pig assessed as hyperemia at 300 ug after 2 hrs relative to control. Format: functional.
A short description of data set [4]: Drug level in Dutch-Belted rabbit aqueous humor at 150 ug administered as topical ocular instillation after 30 mins by RP-HPLC analysis. The format is ADME, Oryctolagus cuniculus, Aqueous humor of eyeball. The note with it: topical or ocular, read-out: Drug uptake.
Data set [5] is described as follows: Aqueous solubility of the compound. Format: physicochemical. The settings on record: buffer.
Data set [6] has as its target Rho-associated protein kinase 2 (Homo sapiens, UniProt O75116). Nature of the data set: Inhibition of truncated ROCK-2 (unknown origin) after 60 mins by IMAP assay.
Data set [7] concerns Cynomolgus monkey. Nature of the data set: Antiglaucoma activity in cynomolgus monkey assessed as reduction in intraocular pressure at MTD administered as topical ocular dose after 6 hrs relative to control. Format: functional, Macaca fascicularis, Eye. Further details: scale not given: the % may be the effect or the level left.
The species named for data set [8] is Cavia porcellus. Put plainly: Antiglaucoma activity in guinea pig assessed as hyperemia at 100 ug after 2 hrs relative to control. The format is functional.
The nature of data set [9]: Drug level in Dutch-Belted rabbit aqueous humor at 100 ug administered as topical ocular instillation after 30 mins by RP-HPLC analysis. The note with it: topical or ocular, read-out: Drug uptake. Format: ADME, Oryctolagus cuniculus, Aqueous humor of eyeball.
For data set [10], the species on record is Cavia porcellus. Nature of the data set: Antiglaucoma activity in guinea pig assessed as hyperemia at 30 ug after 2 hrs relative to control. Format: functional.
Data set [11] is filed under the species Cavia porcellus. Nature of the data set: Antiglaucoma activity in guinea pig assessed as lowest dose required for producing 100% hyperemia after 2 hrs. The format is functional.
In data set [12] the test system is Homo sapiens. Nature of the data set: Antiglaucoma activity in human assessed as reduction in intraocular pressure at 0.25% solution administered as topical ocular dose after 21 days relative to control. Format: functional, Eye. Further details: scale not given: the % may be the effect or the level left.
Data set [13] in a line: Drug level in Dutch-Belted rabbit aqueous humor at 300 ug administered as topical ocular instillation after 30 mins by RP-HPLC analysis. Format: ADME, Oryctolagus cuniculus, Aqueous humor of eyeball. The note with it: topical or ocular, read-out: Drug uptake.
In data set [14] the test system is Homo sapiens. Put plainly: Antiglaucoma activity in human assessed as reduction in intraocular pressure at 0.1% solution administered as topical ocular instillation relative to control. The format is functional, Eye. Details: scale not given: the % may be the effect or the level left.

Structures are written as SMILES. Bounds are passed on as bounds.

Sequence of Rho-associated protein kinase 2 (O75116 whole entry, the tested form may be a part): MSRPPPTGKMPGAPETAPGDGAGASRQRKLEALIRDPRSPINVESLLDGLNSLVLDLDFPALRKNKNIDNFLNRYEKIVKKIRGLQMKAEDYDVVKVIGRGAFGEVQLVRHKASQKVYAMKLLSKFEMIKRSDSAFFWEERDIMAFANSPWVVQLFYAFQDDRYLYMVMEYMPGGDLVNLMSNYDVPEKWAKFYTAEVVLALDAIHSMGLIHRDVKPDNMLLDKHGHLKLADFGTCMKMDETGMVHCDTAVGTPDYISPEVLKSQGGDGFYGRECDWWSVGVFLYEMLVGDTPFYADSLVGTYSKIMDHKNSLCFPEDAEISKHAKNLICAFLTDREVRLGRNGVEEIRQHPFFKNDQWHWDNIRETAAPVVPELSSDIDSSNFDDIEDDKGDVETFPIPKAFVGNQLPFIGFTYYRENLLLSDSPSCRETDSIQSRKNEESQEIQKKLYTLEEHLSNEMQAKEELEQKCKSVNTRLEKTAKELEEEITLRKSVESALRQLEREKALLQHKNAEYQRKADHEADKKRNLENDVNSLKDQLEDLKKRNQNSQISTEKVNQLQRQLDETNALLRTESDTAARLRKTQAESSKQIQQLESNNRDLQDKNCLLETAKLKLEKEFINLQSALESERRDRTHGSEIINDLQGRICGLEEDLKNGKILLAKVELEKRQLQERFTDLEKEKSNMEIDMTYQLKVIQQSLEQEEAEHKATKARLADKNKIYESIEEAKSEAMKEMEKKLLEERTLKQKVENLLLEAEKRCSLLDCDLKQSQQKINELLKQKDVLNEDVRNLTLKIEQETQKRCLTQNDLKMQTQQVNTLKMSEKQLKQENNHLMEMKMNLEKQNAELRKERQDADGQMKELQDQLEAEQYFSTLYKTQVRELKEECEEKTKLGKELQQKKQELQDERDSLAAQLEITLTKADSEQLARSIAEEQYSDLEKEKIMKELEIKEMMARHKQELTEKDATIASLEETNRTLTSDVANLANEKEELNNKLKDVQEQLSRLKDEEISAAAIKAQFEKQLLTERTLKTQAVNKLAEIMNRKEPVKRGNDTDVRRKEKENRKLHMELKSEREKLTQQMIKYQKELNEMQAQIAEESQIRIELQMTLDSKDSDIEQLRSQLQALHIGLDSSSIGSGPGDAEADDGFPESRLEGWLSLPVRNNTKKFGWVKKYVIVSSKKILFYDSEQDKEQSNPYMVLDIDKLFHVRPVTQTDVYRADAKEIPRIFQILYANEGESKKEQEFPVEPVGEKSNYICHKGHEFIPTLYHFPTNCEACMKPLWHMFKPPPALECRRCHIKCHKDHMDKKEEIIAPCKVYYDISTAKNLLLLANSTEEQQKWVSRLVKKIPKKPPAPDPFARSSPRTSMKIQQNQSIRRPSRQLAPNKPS
Sequence of Rho-associated protein kinase 1 (Q13464 whole entry, the tested form may be a part): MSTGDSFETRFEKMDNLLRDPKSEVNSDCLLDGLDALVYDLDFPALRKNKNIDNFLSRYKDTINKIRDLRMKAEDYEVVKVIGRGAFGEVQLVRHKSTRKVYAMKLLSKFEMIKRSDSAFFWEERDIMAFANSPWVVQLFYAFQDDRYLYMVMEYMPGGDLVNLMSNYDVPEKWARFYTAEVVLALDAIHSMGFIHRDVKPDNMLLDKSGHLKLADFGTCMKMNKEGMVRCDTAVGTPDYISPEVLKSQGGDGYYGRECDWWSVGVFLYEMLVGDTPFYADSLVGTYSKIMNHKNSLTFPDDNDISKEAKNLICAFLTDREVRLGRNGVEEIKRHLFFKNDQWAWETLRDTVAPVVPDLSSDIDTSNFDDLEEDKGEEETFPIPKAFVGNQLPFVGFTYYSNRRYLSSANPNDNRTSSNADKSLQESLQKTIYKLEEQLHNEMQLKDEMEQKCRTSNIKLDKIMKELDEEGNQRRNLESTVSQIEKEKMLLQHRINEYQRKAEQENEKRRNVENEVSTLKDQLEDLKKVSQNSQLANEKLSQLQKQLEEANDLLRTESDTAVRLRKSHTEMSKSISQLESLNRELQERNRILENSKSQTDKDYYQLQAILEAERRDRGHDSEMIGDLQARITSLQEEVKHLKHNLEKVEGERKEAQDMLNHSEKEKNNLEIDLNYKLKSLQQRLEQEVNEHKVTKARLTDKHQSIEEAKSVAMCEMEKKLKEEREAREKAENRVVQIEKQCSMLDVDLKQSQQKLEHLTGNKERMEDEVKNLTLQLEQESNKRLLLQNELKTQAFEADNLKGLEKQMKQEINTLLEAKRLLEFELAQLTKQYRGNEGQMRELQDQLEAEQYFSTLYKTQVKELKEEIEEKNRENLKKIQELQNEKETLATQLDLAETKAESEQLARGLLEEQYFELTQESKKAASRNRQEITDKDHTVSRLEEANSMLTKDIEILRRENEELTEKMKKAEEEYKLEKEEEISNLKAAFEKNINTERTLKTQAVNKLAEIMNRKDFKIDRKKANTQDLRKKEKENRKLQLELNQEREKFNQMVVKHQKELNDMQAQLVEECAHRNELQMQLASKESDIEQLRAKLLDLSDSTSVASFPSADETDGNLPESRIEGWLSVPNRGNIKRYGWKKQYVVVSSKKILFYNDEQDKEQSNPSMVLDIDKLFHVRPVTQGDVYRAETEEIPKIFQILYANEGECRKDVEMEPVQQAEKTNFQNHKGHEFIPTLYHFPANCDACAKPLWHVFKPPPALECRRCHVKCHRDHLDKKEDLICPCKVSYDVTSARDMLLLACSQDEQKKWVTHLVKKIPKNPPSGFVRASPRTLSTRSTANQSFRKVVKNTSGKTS

The IC50 is the concentration at which inhibition is half-maximal. For `CN(C)CC(O)CN1CCN(c2nc(-c3ccncc3)cnc2N2CCCC2)CC1` (configuration not stated), the IC50 in [1] was found to be 288 nM; in data set [6] it was 76 nM. For the same compound, in the data set on Cynomolgus monkey [2], the MTD turned out to be 1%. The Activity was determined as 58% in the data set listed under Cavia porcellus [3] and 14% in the data set on Cynomolgus monkey [7]. Besides, the concentration at 0.5 h in data set [4] was determined as 950 nM. The solubility entry in data set [5] is listed as “soluble”.
On to `CC(=O)NCC(O)CN1CCN(c2nc(-c3ccncc3)cnc2N2CCCC2)CC1` (configuration not stated), for which the IC50 in data set [1] stood at 350 nM; in data set [6], 68 nM. The MTD in the data set on Cynomolgus monkey [2] came out at 0.33%. The Activity in the data set listed under Cavia porcellus [8] was found to be 42%; with Cynomolgus monkey [7], 9%. The solubility entry in [5] is “soluble”. For the same compound, the concentration at 0.5 h in [9] was 4800 nM.
As for `CC(=O)NCCCN1CCN(c2nc(-c3ccncc3)cnc2N2CCCC2)CC1`, the Activity in the data set listed under Cavia porcellus [10] was 66%; in the data set with Cynomolgus monkey [7], 24%. The IC50 in data set [1] came out at 346 nM; in [6], 75 nM. The MTD with Cynomolgus monkey [2] came out at 0.5%. In data set [4], the concentration at 0.5 h stood at 8300 nM. In addition, the solubility result in data set [5] is “soluble”.
Regarding `c1nc(N2CCCC2)c(N2CCCNCC2)nc1-c1cc2cn[nH]c2cn1`, the values for the IC50 in data set [1] and in [6] were 203 nM and 65 nM, respectively. This compound also displayed an MTD in the data set with Cynomolgus monkey [2] of 0.33%. Further, in data set [4], the concentration at 0.5 h was 680 nM. Also, the Activity with Cynomolgus monkey [7] is 26%; in the data set listed under Cavia porcellus [11] it was 30 µg.
For the compound `c1cc2[nH]ncc2cc1-c1cncc(N2CCCNCC2)n1`, the values for the concentration for half-maximal inhibition (IC50) in data set [1] and in data set [6] were 105 nM and 24 nM, respectively. The MTD in the data set on Cynomolgus monkey [2] is given as 0.33%. Further, the Activity in the data set on Cynomolgus monkey [7] came out at 30%; in the data set listed under Cavia porcellus [11] it was 30 µg. In addition, in data set [9], the concentration at 0.5 h stood at 1000 nM.
Regarding `Cc1n[nH]c2ccc(-c3cncc(N4CCCNCC4)n3)cc12`, the IC50 in data set [1] is 140 nM; in data set [6] it was 36 nM. The MTD in the data set with Cynomolgus monkey [2] is listed as 0.33%. Also, in the data set with Cynomolgus monkey [7], the Activity is given as 31%. The concentration at 0.5 h in [9] came to 200 nM.
For `CNC(CC1CCCCC1)C(=O)Nc1ccc2cnccc2c1` (configuration not stated), in the data set with Homo sapiens [12], the Activity is listed as 20%.
Consider `OCCN1CCN(c2nc(-c3ccncc3)cnc2N2CCCC2)CC1`, for which the IC50 in [1] worked out at 570 nM; in [6], 39 nM. The same compound gave an MTD with Cynomolgus monkey [2] of 1%. Also, the Activity in the data set listed under Cavia porcellus [8] is given as 33%; in the data set with Cynomolgus monkey [7], 26%. For the same compound, the solubility result in data set [5] is given as “soluble”. In addition, the concentration at 0.5 h in [13] came to 3800 nM.
`C[C@@H](N)c1ccc(C(=O)Nc2ccnc3[nH]ccc23)cc1` [Y-39983]: the results for the Activity in the data set with Homo sapiens [14], in the data set with Cynomolgus monkey [7] and in the data set filed under Cavia porcellus [11] were 22%, less than 15% and 3 µg, respectively. In the data set with Cynomolgus monkey [2], this compound had an MTD of 0.1%. The solubility entry in [5] is listed as “soluble”. Moreover, the concentration at 0.5 h in data set [13] came to 4400 nM.
